Results reported in PubChem BioAssay (NCI).
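Following 48 hours of exposure in 96-well plates, responses at five concentrations were used to interpolate endpoints linearly. GI50 marks 50% less growth. TGI marks complete inhibition of growth.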

How the values were obtained:
Assay in all cases: DTP human tumour cell line panel, 48 h
HOP-62 NSCLC = test system: HOP-62 NSCLC
U251 CNS = test system: U251 CNS
786-0 renal = test system: 786-0 renal
ACHN renal = test system: ACHN renal
UO-31 renal = test system: UO-31 renal
A498 renal = test system: A498 renal
A549 NSCLC = test system: A549 NSCLC
OVCAR-5 ovarian = test system: OVCAR-5 ovarian
UACC-257 melanoma = test system: UACC-257 melanoma
MALME-3M melanoma = test system: MALME-3M melanoma
SF-268 CNS = test system: SF-268 CNS
TK-10 renal = test system: TK-10 renal
EKVX NSCLC = test system: EKVX NSCLC
SNB-19 CNS = test system: SNB-19 CNS
SK-MEL-2 melanoma = test system: SK-MEL-2 melanoma
MOLT-4 leukemia = test system: MOLT-4 leukemia
LOX IMVI melanoma = test system: LOX IMVI melanoma
OVCAR-8 ovarian = test system: OVCAR-8 ovarian
K-562 leukemia = test system: K-562 leukemia
SK-OV-3 ovarian = test system: SK-OV-3 ovarian
HOP-92 NSCLC = test system: HOP-92 NSCLC
OVCAR-4 ovarian = test system: OVCAR-4 ovarian
OVCAR-3 ovarian = test system: OVCAR-3 ovarian
HCC-2998 colon = test system: HCC-2998 colon
SR leukemia = test system: SR leukemia
RXF 393 renal = test system: RXF 393 renal
T-47D breast = test system: T-47D breast
CCRF-CEM leukemia = test system: CCRF-CEM leukemia
UACC-62 melanoma = test system: UACC-62 melanoma

Cn1cc(-c2cc(N)n3nc(-c4c[nH]c5ccc(Cl)cc45)cc3n2)c2cc(Br)cnc21
GI50 (HOP-62 NSCLC): 4.41 µM
TGI (HOP-62 NSCLC): 27.6 µM
GI50 (U251 CNS): 1.81 µM
TGI (U251 CNS): 3.39 µM
GI50 (786-0 renal): 1.64 µM
TGI (786-0 renal): 3.06 µM
GI50 (ACHN renal): 1.87 µM
TGI (ACHN renal): 3.92 µM
GI50 (UO-31 renal): 2.93 µM
TGI (UO-31 renal): 12.1 µM
GI50 (A498 renal): 13.1 µM
TGI (A498 renal): 29.4 µM
GI50 (A549 NSCLC): 2.13 µM
TGI (A549 NSCLC): 6.32 µM
GI50 (OVCAR-5 ovarian): 2.01 µM
TGI (OVCAR-5 ovarian): 6.48 µM
GI50 (UACC-257 melanoma): 12.5 µM
TGI (UACC-257 melanoma): 25.5 µM
GI50 (MALME-3M melanoma): 2.18 µM
TGI (MALME-3M melanoma): 5.19 µM
GI50 (SF-268 CNS): 7.39 µM
TGI (SF-268 CNS): 43.9 µM
GI50 (TK-10 renal): 2.27 µM
TGI (TK-10 renal): 7.2 µM
GI50 (EKVX NSCLC): 3.04 µM
TGI (EKVX NSCLC): 14.1 µM
GI50 (SNB-19 CNS): 3.25 µM
TGI (SNB-19 CNS): 11.5 µM
GI50 (SK-MEL-2 melanoma): 2.63 µM
TGI (SK-MEL-2 melanoma): 7.51 µM
GI50 (MOLT-4 leukemia): 1.76 µM
TGI (MOLT-4 leukemia): 5.68 µM
GI50 (LOX IMVI melanoma): 1.95 µM
TGI (LOX IMVI melanoma): 3.44 µM
GI50 (OVCAR-8 ovarian): 2.29 µM
TGI (OVCAR-8 ovarian): 5.22 µM
GI50 (K-562 leukemia): 2.4 µM
TGI (K-562 leukemia): 6.27 µM
GI50 (SK-OV-3 ovarian): 18.6 µM
TGI (SK-OV-3 ovarian): 72.1 µM
GI50 (HOP-92 NSCLC): 2.16 µM
TGI (HOP-92 NSCLC): 4.58 µM
GI50 (OVCAR-4 ovarian): 2.98 µM
TGI (OVCAR-4 ovarian): 9.01 µM
GI50 (OVCAR-3 ovarian): 3.23 µM
TGI (OVCAR-3 ovarian): 9.96 µM
GI50 (HCC-2998 colon): 1.76 µM
TGI (HCC-2998 colon): 3.36 µM
GI50 (SR leukemia): 2.27 µM
TGI (SR leukemia): > 100 µM
GI50 (RXF 393 renal): 1.72 µM
TGI (RXF 393 renal): 3.32 µM
GI50 (T-47D breast): 2.38 µM
TGI (T-47D breast): 7.3 µM
GI50 (CCRF-CEM leukemia): 3.32 µM
TGI (CCRF-CEM leukemia): 10.7 µM
GI50 (UACC-62 melanoma): 1.69 µM
